From patent US20100324072A1, “PYRROLOPYRIDINE DERIVATIVES AND THEIR USE AS BACE INHIBITORS” (ASTRAZENECA AB, priority 2007, published 2010)

Target: T1, human β-Secretase (Homo sapiens, UniProt P56817)
T1 construct: The soluble part of the human β-Secretase (AA 1-AA 460) was cloned; Fc domain of IgG1 (C); made in house
Test: TR-FRET assay (β-secretase enzyme cleavage of (Europium)CEVNLDAEFK(Qsy7) substrate)
Assay type: biochemical
Settings: sBACE-Fc 2.7 μg/ml, substrate 100 nM, pH 4.5, 15 min at RT
Description: The enzyme used in the IGEN Cleavage-, Fluorescent-, TR-FRET- and BiaCore assays is described as follows:
The soluble part of the human β-Secretase (AA 1-AA 460) was cloned into the ASP2-Fc10-1-IRES-GFP-neoK mammalian expression vector. The gene was fused to the Fc domain of IgG1 (affinity tag) and stably cloned into HEK 293 cells. Purified sBACE-Fc is stored in Tris buffer, pH 9.2 and has a purity of 95%.
Enzyme was diluted to 6 μg/mL and the substrate (Europium)CEVNLDAEFK(Qsy7) to 200 nM in reaction buffer (NaAcetate, chaps, triton x-100, EDTA pH 4.5). Compounds were diluted to the desired concentration in dimethyl sulfoxide (final dimethyl sulfoxide concentration in assay is 5%). The assay was done in a Costar 384 well round bottom, low volume, non-binding surface plate (Corning #3676). Enzyme (9 μL) and 1 μL of compound in dimethyl sulfoxide was added to the plate, mixed and pre-incubated for 10 min. Substrate (10 μL) was added and the reaction proceeded in the dark for 15 min at RT. The reaction was stopped with the addition of 7 μl, NaAcetate, pH 9. The fluorescence of the product was measured on a Victor II plate reader with an excitation wavelength of 340 nm and an emission wavelength of 615 nm. The final concentration of the enzyme was 2.7 μg/ml and the final concentration of the substrate was 100 nM (Km of 290 nM). […]

T1 sequence (P56817 22-460): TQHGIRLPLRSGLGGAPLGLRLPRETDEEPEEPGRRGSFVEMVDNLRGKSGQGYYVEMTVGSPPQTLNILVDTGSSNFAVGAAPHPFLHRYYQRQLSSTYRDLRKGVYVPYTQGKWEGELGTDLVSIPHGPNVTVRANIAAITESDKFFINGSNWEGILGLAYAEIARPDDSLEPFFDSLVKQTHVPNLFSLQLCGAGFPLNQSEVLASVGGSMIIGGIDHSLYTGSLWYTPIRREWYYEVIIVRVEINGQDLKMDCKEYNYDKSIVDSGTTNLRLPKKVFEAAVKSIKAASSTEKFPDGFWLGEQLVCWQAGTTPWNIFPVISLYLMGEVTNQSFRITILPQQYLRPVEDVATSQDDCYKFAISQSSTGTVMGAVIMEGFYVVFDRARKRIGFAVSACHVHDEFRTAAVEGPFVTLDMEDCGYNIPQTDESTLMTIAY

Q: How did the Ki turn out when `COc1cccc(-c2cccc(C3(c4ccncc4)N=C(N)c4cccnc43)c2)c1F` (stereo not shown) [Example 23, 7-(2′-Fluoro-3′-methoxybiphenyl-3-yl)-7-pyridin-4-yl-7H-pyrrolo[3,4-b]pyridin-5-amine] was run?
A: 88 nM
